This passage reports MIC results from patent US11279735B2, “Cyclic peptide antibiotics” (priority 2017, dated 2022).

The MIC is the lowest concentration that inhibits growth of the organism. High values mean weaker potency, low ones greater potency.

SMILES strings stand for the structures. Values after ≈ are worked out from the molar mass of the structure shown. *1 amine or outer side, *2 acyl side, *3 side chain or, on linkers, in order; H or OH if unused. Where a SMILES comes first, the peptide text is derived from it. [ ]: non-standard residue; d: D form. The star is where a group is joined. X13 = C[C@H](CO[C@H](CC1CC2(CCC2)C1)[C@@H](C)C(=O)[*:2])N[*:1]; X2 = CCCCCC[C@@H](OC[C@@H](C)N[*:1])[C@@H](C)C(=O)[*:2]; X14 = CCCCCC[C@@H](OCCN[*:1])[C@@H](C)C(=O)[*:2]; Cyclobutyl(trans-3-NH2) = N[C@H]1C[C@H](*)C1; Gly(cHept) = N[C@H](C(=O)O)C1CCCCCC1; aThr = C[C@H](O)[C@H](N)C(=O)O; NMeL = CN[C@@H](CC(C)C)C(=O)O; Chg = N[C@H](C(=O)O)C1CCCCC1; NMeNva = CCC[C@H](NC)C(=O)O; Propyl(3-NMe2) = CN(C)CCC*; Dap = NC[C@H](N)C(=O)O; Propyl(3-NH2) = NCCC*

For this assay, the system named is Escherichia coli (E. coli) strain CFT073 ATCC 700928. It counts as cell-based. Particulars: ATCC 700928, 22 h. A digest of the protocol:
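MICs were read after 22 h at 35 °C, with bacteria added to a final OD600 of 0.0005. Compounds were serially diluted 2-fold over ten concentrations from a top of 64, 4, 0.5 or 0.13 μg/mL (protocols 1–4). Medium was cation-adjusted Mueller Hinton II broth plus 0.002% Tween-80, following CLSI M07-A8.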
Regarding `CCCCCC[C@H]1OC(=O)CNC(=O)[C@H](C2CCC2)NC(=O)[C@H](CN)NC(=O)[C@H](C2CCCCC2)NC(=O)[C@H](CC(C)C)N(C)C(=O)[C@@H]1C` [Example 162, (6S,9S,12S,15S,18R,19R)-9-(Aminomethyl)-6-cyclobutyl-12-cyclohexyl-19-hexyl-15-isobutyl-16,18-dimethyl-1-oxa-4,7,10,13,16-pentaazacyclononadecane-2,5,8,11,14,17-hexaone], the minimal inhibitory concentration (MIC) is 3.1 µM (≈ 2.14 µg/mL).
In the case of `CCC[C@H]1C(=O)N[C@@H](C2CCCCCC2)C(=O)N[C@@H](CN)C(=O)N[C@@H](CO[C@H]2C[C@H](N)C2)C(=O)N[C@H](C)CO[C@H](CC2CC3(CCC3)C2)[C@@H](C)C(=O)N1C` [Example 164, (3R,6S,9S,12S,15S,18R,19R)-6-(((1r,3S)-3-Aminocyclobutoxy)methyl)-9-(aminomethyl)-12-cycloheptyl-3,16,18-trimethyl-15-propyl-19-(spiro[3.3]heptan-2-ylmethyl)-1-oxa-4,7,10,13,16-pentaazacyclononadecane-5,8,11,14,17-pentaone] (cyclo([Dap]S(Cyclobutyl(trans-3-NH2))[X13][NMeNva][Gly(cHept)])) it was 2.2 µM (≈ 1.67 µg/mL); in that of `CCCCCCCCCC[C@H]1OC(=O)[C@H](C)NC(=O)[C@H]([C@H](C)O)NC(=O)[C@H](CN)NC(=O)[C@H]([C@H](C)CC)NC(=O)[C@H](CC(C)C)N(C)C(=O)[C@@H]1C` [Example 3, (3S,6S,9S,12S,15S,18R,19R)-9-(aminomethyl)-12-((R)-sec-butyl)-19-decyl-6-((S)-1-hydroxyethyl)-15-isobutyl-3,16,18-trimethyl-1-oxa-4,7,10,13,16-pentaazacyclononadecane-2,5,8,11,14,17-hexaone], 3.1 µM (≈ 2.25 µg/mL).
Consider `CCCCCC[C@H]1OCCNC(=O)[C@H]([C@H](C)O)NC(=O)[C@H](CN)NC(=O)[C@H](C2CCCCC2)NC(=O)[C@H](CC(C)C)N(C)C(=O)[C@@H]1C` [Example 115, (6S,9S,12S,15S,18R,19R)-9-(aminomethyl)-12-cyclohexyl-19-hexyl-15-isobutyl-16,18-dimethyl-6-[(1S)-1-hydroxyethyl]-1-oxa-4,7,10,13,16-pentazacyclononadecane-5,8,11,14,17-pentone] (cyclo([Chg][Dap][aThr][X14][NMeL])), for which the minimum inhibitory concentration (MIC) was found to be 8.7 µM (≈ 5.8 µg/mL). Against the preceding compound, the MIC is about 2.8-fold higher.
Turning to `CCCCCCCCCCCC[C@H]1OC(=O)CNC(=O)[C@H]([C@H](C)O)NC(=O)[C@H](CO)NC(=O)[C@H]([C@@H](C)CC)NC(=O)[C@H](CC(C)C)N(C)C(=O)[C@@H]1C` [Example 35, (6S,9S,12S,15S,18R,19R)-19-dodecyl-6-[(1S)-1-hydroxyethyl]-9-(hydroxymethyl)-15-isobutyl-16,18-dimethyl-12-[(1S)-1-methylpropyl]-1-oxa-4,7,10,13,16-pentazacyclononadecane-2,5,8,11,14,17-hexone], the minimum inhibitory concentration (MIC) stood at 6.3 µM (≈ 4.66 µg/mL).
In the case of `CCCCCCCCCC[C@H]1OC(=O)CNC(=O)[C@H](CO)NC(=O)[C@H](CO)NC(=O)[C@H](CC2CCC2)NC(=O)[C@H](CC(C)C)N(C)C(=O)[C@@H]1C` [Example 41, (6S,9S,12S,15S,18R,19R)-12-(cyclobutylmethyl)-19-decyl-6,9-bis(hydroxymethyl)-15-isobutyl-16,18-dimethyl-1-oxa-4,7,10,13,16-pentazacyclononadecane-2,5,8,11,14,17-hexone] it was 25 µM (≈ 17.7 µg/mL).
Turning to `CCCCCC[C@H]1OC[C@@H](C)NC(=O)[C@H](COCCCN(C)C)NC(=O)[C@H](CN)NC(=O)[C@H](C2CCCCC2)NC(=O)[C@H](CC(C)C)N(C)C(=O)[C@@H]1C` [Example 78, (3R,6S,9S,12S,15S,18R,19R)-9-(Aminomethyl)-12-cyclohexyl-6-((3-(dimethylamino)propoxy)methyl)-19-hexyl-15-isobutyl-3,16,18-trimethyl-1-oxa-4,7,10,13,16-pentaazacyclononadecane-5,8,11,14,17-pentaone] (cyclo([Chg][Dap]S(Propyl(3-NMe2))[X2][NMeL])), the minimal inhibitory concentration (MIC) stood at 25 µM (≈ 18.8 µg/mL).
Regarding `CCCCCC[C@H]1OC(=O)CNC(=O)[C@H]([C@H](C)O)NC(=O)[C@H](CN)NC(=O)[C@H](C2CCCCC2)NC(=O)[C@H](CC(C)C)N(C)C(=O)[C@@H]1Cc1ccc(-c2ccccc2)cc1` [Example 54, (6S,9S,12S,15S,18R,19R)-18-([1,1′-Biphenyl]-4-ylmethyl)-9-(aminomethyl)-12-cyclohexyl-19-hexyl-6-((S)-1-hydroxyethyl)-15-isobutyl-16-methyl-1-oxa-4,7,10,13,16-pentaazacyclononadecane-2,5,8,11,14,17-hexaone], the MIC worked out at 8.7 µM (≈ 7.25 µg/mL).
In the case of `CCCCCC[C@H]1OC[C@@H](C)NC(=O)[C@H](CN)NC(=O)[C@H](CN)NC(=O)[C@H](C2CCCCCC2)NC(=O)[C@H](CC(C)C)N(C)C(=O)[C@@H]1C` [Example 151, (3R,6S,9S,12S,15S,18R,19R)-6,9-Bis(aminomethyl)-12-cycloheptyl-19-hexyl-15-isobutyl-3,16,18-trimethyl-1-oxa-4,7,10,13,16-pentazacyclononadecane-5,8,11,14,17-pentone] (cyclo([Dap][Dap][X2][NMeL][Gly(cHept)])) it was 6.3 µM (≈ 4.28 µg/mL).
`CCCCCCCCCC[C@H]1OC(=O)CNC(=O)[C@H](CNC(N)=O)NC(=O)[C@H](CO)NC(=O)[C@H]([C@@H](C)CC)NC(=O)[C@H](CC(C)C)N(C)C(=O)[C@@H]1C` [Example 37, [(6S,9S,12S,15S,18R,19R)-19-decyl-9-(hydroxymethyl)-15-isobutyl-16,18-dimethyl-12-[(1S)-1-methylpropyl]-2,5,8,11,14,17-hexaoxo-1-oxa-4,7,10,13,16-pentazacyclononadec-6-yl]methylurea] gave an MIC of 25 µM (≈ 18.5 µg/mL).
For `CCC[C@H]1C(=O)N[C@@H](C2CCCCCC2)C(=O)N[C@@H](CN)C(=O)N[C@@H](CO[C@H]2C[C@H](N)C2)C(=O)NCC(=O)O[C@H](CC2CC3CCC2C3)[C@@H](C)C(=O)N1C` (stereo partly drawn) [Example 141, (6S,9S,12S,15S,18R,19R)-6-[(3-aminocyclobutoxy)methyl]-9-(aminomethyl)-12-cycloheptyl-16,18-dimethyl-19-(norbornan-2-ylmethyl)-15-propyl-1-oxa-4,7,10,13,16-pentazacyclononadecane-2,5,8,11,14,17-hexone], the minimum inhibitory concentration (MIC) worked out at 2.2 µM (≈ 1.67 µg/mL).
In turn, `CCC[C@H]1C(=O)N[C@@H](C2CCCCCC2)C(=O)N[C@@H](CN)C(=O)N[C@@H](COCCCN)C(=O)N[C@H](C)CO[C@H](CC2CC3(CCC3)C2)[C@@H](C)C(=O)N1C` [Example 159, (3R,6S,9S,12S,15S,18R,19R)-9-(Aminomethyl)-6-((3-aminopropoxy)methyl)-12-cycloheptyl-3,16,18-trimethyl-15-propyl-19-(spiro[3.3]heptan-2-ylmethyl)-1-oxa-4,7,10,13,16-pentaazacyclononadecane-5,8,11,14,17-pentaone] (cyclo([Dap]S(Propyl(3-NH2))[X13][NMeNva][Gly(cHept)])) yielded a minimal inhibitory concentration (MIC) of 3.1 µM (≈ 2.32 µg/mL). This MIC and that of the compound before are within 1.5-fold of each other.
In the case of `CCCCCC[C@H]1OC(=O)CNC(=O)[C@H]([C@H](C)O)NC(=O)[C@H](CN)NC(=O)[C@H](C2CCCCC2)NC(=O)[C@H](CC(C)C)N(C)C(=O)[C@@H]1Cc1cccc(C)c1` [Example 119, (6S,9S,12S,15S,18R,19R)-9-(aminomethyl)-12-cyclohexyl-19-hexyl-15-isobutyl-16-methyl-18-(m-tolylmethyl)-6-[(1S)-1-hydroxyethyl]-1-oxa-4,7,10,13,16-pentazacyclononadecane-2,5,8,11,14,17-hexone] it was 3.1 µM (≈ 2.39 µg/mL).
